Assay results as given in patent publication US7138361B2, “Herbicidal heterocycles” (E. I. du Pont de Nemours and Company, priority 2000, dated 2006).

Columns and labels:
Format in all cases: in vivo
[1] = system: barnyardgrass (Echinochloa crus-galli); assay: Test C flooded paddy test; conditions: for Barnyardgrass plant response rating: Flooded Paddy, scale 0 to 100, 0 no effect, 100 complete control; for Plant response rating, Barnyardgrass: flooded paddy test, scale 0 to 100 (0 no effect, 100 complete control)
Method in brief: (§1)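 2-leaf-stage plants, flooded paddy; treated; greenhouse 12–14 days; compared with controls by eye; rated 0–100 (0 none, 100 complete control).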

[2] = system: duck salad (Heteranthera limosa); assay: Test C flooded paddy test; conditions: for Ducksalad plant response rating: Flooded Paddy, scale 0 to 100, 0 no effect, 100 complete control; for Plant response rating, Ducksalad: flooded paddy test, scale 0 to 100 (0 no effect, 100 complete control)
Method in brief: as §1

[3] = system: smallflower flatsedge (Cyperus difformis); assay: Test C flooded paddy test; conditions: for Flatsedge plant response rating: Flooded Paddy, scale 0 to 100, 0 no effect, 100 complete control; for Plant response rating, Flatsedge: flooded paddy test, scale 0 to 100 (0 no effect, 100 complete control)
Method in brief: as §1

corn (Zea mays) = assay: Test C preemergence; conditions: for Plant response rating (0 to 100), Corn: visual evaluation after 12 to 14 days
Method in brief: (§2)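 Plants held in greenhouse for 12–14 days post-application are scored by eye against controls on a 0–100 control scale. Application timing: preemergence on sown seed, or postemergence on 2–18 cm plants.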

[4] = system: morningglory (Ipomoea hederacea); assay: Test C preemergence
Method in brief: as §2

[5] = system: pigweed (Amaranthus retroflexus); assay: Test C preemergence
Method in brief: as §2

soybean (Glycine max) = assay: Test C preemergence
Method in brief: as §2

[6] = system: cocklebur (Xanthium strumarium); assay: Test C preemergence; conditions: for Plant response rating (0 to 100), Cocklebur: visual evaluation after 12 to 14 days
Method in brief: as §2

[7] = system: yellow nutsedge (Cyperus esculentus); assay: Test C preemergence
Method in brief: as §2

[8] = system: velvetleaf (Abutilon theophrasti); assay: Test C preemergence
Method in brief: as §2

[9] = system: lambsquarters (Chenopodium album); assay: Test C preemergence
Method in brief: as §2

[10] = system: crabgrass (Digitaria sanguinalis); assay: Test C preemergence; conditions: for Plant response rating (0 to 100), Crabgrass: visual evaluation after 12 to 14 days
Method in brief: as §2

Nightshade = assay: Test C preemergence
[11] = system: Surinam grass (Brachiaria decumbens); assay: Test C preemergence; conditions: for Plant response rating (0 to 100), Surinam grass: visual evaluation after 12 to 14 days
Method in brief: as §2

[12] = system: giant foxtail (Setaria faberii); assay: Test C preemergence; conditions: for Plant response rating (0 to 100), Foxtail, Giant: visual evaluation after 12 to 14 days
Method in brief: as §2

[13] = system: woolly cupgrass (Eriochloa villosa); assay: Test C preemergence; conditions: for Plant response rating (0 to 100), Cupgrass, Woolly: visual evaluation after 12 to 14 days
Method in brief: as §2

[14] = system: johnsongrass (Sorghum halepense); assay: Test C preemergence; conditions: for Plant response rating (0 to 100), Johnsongrass: preemergence, visual evaluation after 12 to 14 days
Method in brief: as §2

kochia (Kochia scoparia) = assay: Test C preemergence; conditions: for Plant response rating (0 to 100), Kochia: visual evaluation after 12 to 14 days
Method in brief: as §2

Sunflower [15] = assay: Test C preemergence; conditions: Rate 125 g/ha; scale 0 to 100, 0 no effect, 100 complete control
[16] = system: goosegrass (Eleusine indica); assay: Test C preemergence; conditions: for Plant response rating (0 to 100), Goosegrass: visual evaluation after 12 to 14 days
Method in brief: as §2

[17] = system: bermudagrass (Cynodon dactylon); assay: Test C preemergence; conditions: for Plant response rating (0 to 100 where 0 is no effect and 100 is complete control), Bermudagrass: visual evaluation after 12 to 14 days
Method in brief: as §2

Sunflower [18] = assay: Test C preemergence; conditions: Rate 500 g/ha, visual evaluation after 12 to 14 days
[19] = Rate 125 g/ha, scale 0 to 100, 0 no effect, 100 complete control
[20] = preemergence, Rate 62 g/ha, scale 0 to 100
[21] = preemergence, Rate 500 g/ha, visual evaluation after 12 to 14 days
[22] = preemergence, Rate 250 g/ha, scale 0 to 100, 0 no effect, 100 complete control

Q: What does the source list for `COc1cc(N2CCC(n3ccc(C(C)C)n3)C2=O)ccc1C` (centres unmarked) [Compound 85]?
A: Barnyardgrass plant response rating ([1]; Rate 250 g/ha): 100; Barnyardgrass plant response rating ([1]; Rate 500 g/ha): 100; Plant response rating, Barnyardgrass ([1]; Rate 62 g/ha): 40; Plant response rating, Barnyardgrass ([1]; Rate 125 g/ha): 90; Ducksalad plant response rating ([2]; Rate 250 g/ha): 100; Ducksalad plant response rating ([2]; Rate 500 g/ha): 100; Plant response rating, Ducksalad ([2]; Rate 62 g/ha): 90; Plant response rating, Ducksalad ([2]; Rate 125 g/ha): 100; Flatsedge plant response rating ([3]; Rate 250 g/ha): 100; Flatsedge plant response rating ([3]; Rate 500 g/ha): 100; Plant response rating, Flatsedge ([3]; Rate 62 g/ha): 90; Plant response rating, Flatsedge ([3]; Rate 125 g/ha): 100; Plant response rating, Corn (corn (Zea mays); [19]): 30; Plant response rating, Corn (corn (Zea mays); [20]): 30; Plant response rating (0 to 100), Corn (corn (Zea mays); preemergence, Rate 250 g/ha): 60; Plant response rating (0 to 100), Corn (corn (Zea mays); preemergence, Rate 500 g/ha): 80; Plant response rating, Morningglory [4, 19]: 90; Plant response rating, Morningglory [4, 20]: 50; Plant response rating (0 to 100), Morningglory [4, 21]: 100; Plant response rating, Morningglory [4, 22]: 90; Plant response rating, Pigweed [5, 19]: 100; Plant response rating, Pigweed [5, 20]: 100; Plant response rating (0 to 100), Pigweed [5, 21]: 100; Plant response rating, Pigweed [5, 22]: 100; Plant response rating, Soybean (soybean (Glycine max); [19]): 40; Plant response rating, Soybean (soybean (Glycine max); [20]): 20; Plant response rating (0 to 100), Soybean (soybean (Glycine max); [21]): 100; Plant response rating, Soybean (soybean (Glycine max); [22]): 40; Plant response rating, Cocklebur [6, 19]: 60; Plant response rating, Cocklebur [6, 20]: 60; Plant response rating (0 to 100), Cocklebur ([6]; preemergence, Rate 250 g/ha): 60; Plant response rating (0 to 100), Cocklebur ([6]; preemergence, Rate 500 g/ha): 60; Plant response rating, Nutsedge [7, 19]: 70; Plant response rating, Nutsedge [7, 20]: 50; Plant response rating (0 to 100), Nutsedge [7, 21]: 90; Plant response rating, Nutsedge [7, 22]: 70; Plant response rating, Velvetleaf [8, 19]: 70; Plant response rating, Velvetleaf [8, 20]: 70; Plant response rating (0 to 100), Velvetleaf [8, 21]: 100; Plant response rating, Velvetleaf [8, 22]: 80; Plant response rating, Lambsquarters [9, 19]: 100; Plant response rating, Lambsquarters [9, 20]: 100; Plant response rating (0 to 100), Lambsquarters [9, 21]: 100; Plant response rating, Lambsquarters [9, 22]: 100; Plant response rating, Crabgrass [10, 19]: 100; Plant response rating, Crabgrass [10, 20]: 100; Plant response rating (0 to 100), Crabgrass ([10]; preemergence, Rate 250 g/ha): 100; Plant response rating (0 to 100), Crabgrass ([10]; preemergence, Rate 500 g/ha): 100; Plant response rating, Nightshade (Nightshade; Rate 62 g/ha, scale 0 to 100): 80; Plant response rating, Nightshade (Nightshade; [19]): 90; Plant response rating, Nightshade (Nightshade; Rate 250 g/ha, scale 0 to 100, 0 no effect, 100 complete control): 100; Plant response rating, Surinam grass [11, 19]: 30; Plant response rating, Surinam grass [11, 20]: 30; Plant response rating (0 to 100), Surinam grass ([11]; preemergence, Rate 250 g/ha): 100; Plant response rating (0 to 100), Surinam grass ([11]; preemergence, Rate 500 g/ha): 100; Plant response rating, Foxtail, Giant [12, 19]: 100; Plant response rating, Foxtail, Giant [12, 20]: 60; Plant response rating (0 to 100), Foxtail, Giant ([12]; preemergence, Rate 250 g/ha): 100; Plant response rating (0 to 100), Foxtail, Giant ([12]; preemergence, Rate 500 g/ha): 100; Plant response rating, Cupgrass, Woolly [13, 19]: 100; Plant response rating, Cupgrass, Woolly [13, 20]: 100; Plant response rating (0 to 100), Cupgrass, Woolly ([13]; preemergence, Rate 250 g/ha): 100; Plant response rating (0 to 100), Cupgrass, Woolly ([13]; preemergence, Rate 500 g/ha): 100; Plant response rating, Johnsongrass [14, 19]: 50; Plant response rating (0 to 100), Johnsongrass ([14]; Rate 250 g/ha): 80; Plant response rating (0 to 100), Johnsongrass ([14]; Rate 500 g/ha): 100; Plant response rating, Kochia (kochia (Kochia scoparia); [19]): 100; Plant response rating, Kochia (kochia (Kochia scoparia); [20]): 100; Plant response rating (0 to 100), Kochia (kochia (Kochia scoparia); preemergence, Rate 250 g/ha): 100; Plant response rating (0 to 100), Kochia (kochia (Kochia scoparia); preemergence, Rate 500 g/ha): 100; Plant response rating, Sunflower (Sunflower [15]): 70; Plant response rating, Goosegrass [16, 19]: 100; Plant response rating, Goosegrass [16, 20]: 20; Plant response rating (0 to 100), Goosegrass ([16]; preemergence, Rate 250 g/ha): 100; Plant response rating (0 to 100), Goosegrass ([16]; preemergence, Rate 500 g/ha): 100; Plant response rating, Bermudagrass [17, 19]: 100; Plant response rating, Bermudagrass [17, 20]: 100; Plant response rating (0 to 100 where 0 is no effect and 100 is complete control), Bermudagrass ([17]; preemergence, Rate 250 g/ha): 100; Plant response rating (0 to 100 where 0 is no effect and 100 is complete control), Bermudagrass ([17]; preemergence, Rate 500 g/ha): 100; Plant response rating (0 to 100), Sunflower (Sunflower [18]): 70
